# Measurements taken from the kinase profiling compilation of Christmann-Franck et al. (2016).
# What was measured:
# Experiment in all cases: radiometric filter-binding kinase assay
# AURKA (human) = AURKA (human) (UniProt O14965)
# AURKB (human) = AURKB (human) (UniProt Q96GD4)
# CSNK2A1 (human) = CSNK2A1 (human) (UniProt P68400)
# DYRK1A (human) = DYRK1A (human) (UniProt Q13627)
# EPHA2 (human) = EPHA2 (human) (UniProt P29317)
# FGFR1 (human) = FGFR1 (human) (UniProt P11362)
# HIPK3 (human) = HIPK3 (human) (UniProt Q9H422)
# INSRR (human) = INSRR (human) (UniProt P14616)
# IRAK4 (human) = IRAK4 (human) (UniProt Q9NWZ3)
# IRAK4 (human), sequence (Q9NWZ3 whole entry, looked up): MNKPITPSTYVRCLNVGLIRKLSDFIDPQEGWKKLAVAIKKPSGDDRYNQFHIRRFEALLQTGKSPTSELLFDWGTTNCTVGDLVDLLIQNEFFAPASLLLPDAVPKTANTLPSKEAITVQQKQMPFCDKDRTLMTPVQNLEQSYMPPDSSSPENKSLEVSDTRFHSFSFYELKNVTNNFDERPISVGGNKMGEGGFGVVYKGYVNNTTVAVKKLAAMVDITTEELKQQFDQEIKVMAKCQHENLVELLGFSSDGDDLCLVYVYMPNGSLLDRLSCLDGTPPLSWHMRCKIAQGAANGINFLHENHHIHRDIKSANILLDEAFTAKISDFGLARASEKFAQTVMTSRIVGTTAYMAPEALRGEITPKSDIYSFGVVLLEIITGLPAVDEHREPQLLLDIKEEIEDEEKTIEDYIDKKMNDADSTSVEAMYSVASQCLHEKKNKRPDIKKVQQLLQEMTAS
# MAP2K1 (human) = MAP2K1 (human) (UniProt Q02750)
# MAP2K1 (human), sequence (Q02750 whole entry, looked up): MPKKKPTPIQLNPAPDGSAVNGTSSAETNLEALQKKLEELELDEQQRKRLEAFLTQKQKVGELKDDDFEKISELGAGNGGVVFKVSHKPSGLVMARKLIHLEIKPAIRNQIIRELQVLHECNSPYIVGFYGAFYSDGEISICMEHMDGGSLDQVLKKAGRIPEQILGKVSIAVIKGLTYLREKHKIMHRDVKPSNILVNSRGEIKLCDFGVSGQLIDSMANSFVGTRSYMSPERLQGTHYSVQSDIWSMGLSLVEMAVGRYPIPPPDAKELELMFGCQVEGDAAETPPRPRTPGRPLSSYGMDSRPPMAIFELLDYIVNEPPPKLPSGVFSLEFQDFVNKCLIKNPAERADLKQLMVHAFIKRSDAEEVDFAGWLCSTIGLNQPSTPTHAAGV
# MAPK12 (human) = MAPK12 (human) (UniProt P53778)
# MAPK12 (human), sequence (P53778 whole entry, looked up): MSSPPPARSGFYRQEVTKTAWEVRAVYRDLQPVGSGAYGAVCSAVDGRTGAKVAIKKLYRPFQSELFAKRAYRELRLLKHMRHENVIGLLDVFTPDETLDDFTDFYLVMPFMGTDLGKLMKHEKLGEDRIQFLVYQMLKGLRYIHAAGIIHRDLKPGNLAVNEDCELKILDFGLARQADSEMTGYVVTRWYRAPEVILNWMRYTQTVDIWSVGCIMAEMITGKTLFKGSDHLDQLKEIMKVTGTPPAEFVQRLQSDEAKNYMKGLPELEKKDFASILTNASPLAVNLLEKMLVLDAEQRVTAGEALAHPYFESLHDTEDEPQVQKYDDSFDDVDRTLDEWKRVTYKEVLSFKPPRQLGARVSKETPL
# MAPK13 (human) = MAPK13 (human) (UniProt O15264)
# MAPK3 (human) = MAPK3 (human) (UniProt P27361)
# MAPK3 (human), sequence (P27361 whole entry, looked up): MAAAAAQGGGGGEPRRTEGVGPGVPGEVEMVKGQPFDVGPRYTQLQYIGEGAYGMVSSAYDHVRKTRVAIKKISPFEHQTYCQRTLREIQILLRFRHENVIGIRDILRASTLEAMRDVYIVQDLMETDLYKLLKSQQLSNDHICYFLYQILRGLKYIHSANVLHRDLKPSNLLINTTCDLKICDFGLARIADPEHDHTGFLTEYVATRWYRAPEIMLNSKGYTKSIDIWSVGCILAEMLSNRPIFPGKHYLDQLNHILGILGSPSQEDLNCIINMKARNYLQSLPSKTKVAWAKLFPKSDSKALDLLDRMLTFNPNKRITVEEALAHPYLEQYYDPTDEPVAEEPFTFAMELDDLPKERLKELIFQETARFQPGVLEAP
# MAPK9 (human) = MAPK9 (human) (UniProt P45984)
# MAPK9 (human), sequence (P45984 whole entry, looked up): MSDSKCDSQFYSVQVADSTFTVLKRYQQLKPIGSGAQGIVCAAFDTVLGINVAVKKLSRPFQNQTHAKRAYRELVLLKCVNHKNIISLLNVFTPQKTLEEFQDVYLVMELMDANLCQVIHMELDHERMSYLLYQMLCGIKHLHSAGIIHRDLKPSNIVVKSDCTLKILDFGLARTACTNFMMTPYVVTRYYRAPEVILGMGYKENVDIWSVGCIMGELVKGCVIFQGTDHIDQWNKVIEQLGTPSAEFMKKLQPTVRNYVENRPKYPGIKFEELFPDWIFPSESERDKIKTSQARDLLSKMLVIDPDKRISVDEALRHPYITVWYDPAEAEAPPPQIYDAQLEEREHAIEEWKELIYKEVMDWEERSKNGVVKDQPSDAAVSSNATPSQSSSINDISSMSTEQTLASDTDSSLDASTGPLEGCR
# MARK3 (human) = MARK3 (human) (UniProt P27448)
# MARK4 (human) = MARK4 (human) (UniProt Q96L34)
# MARK4 (human), sequence (Q96L34 whole entry, looked up): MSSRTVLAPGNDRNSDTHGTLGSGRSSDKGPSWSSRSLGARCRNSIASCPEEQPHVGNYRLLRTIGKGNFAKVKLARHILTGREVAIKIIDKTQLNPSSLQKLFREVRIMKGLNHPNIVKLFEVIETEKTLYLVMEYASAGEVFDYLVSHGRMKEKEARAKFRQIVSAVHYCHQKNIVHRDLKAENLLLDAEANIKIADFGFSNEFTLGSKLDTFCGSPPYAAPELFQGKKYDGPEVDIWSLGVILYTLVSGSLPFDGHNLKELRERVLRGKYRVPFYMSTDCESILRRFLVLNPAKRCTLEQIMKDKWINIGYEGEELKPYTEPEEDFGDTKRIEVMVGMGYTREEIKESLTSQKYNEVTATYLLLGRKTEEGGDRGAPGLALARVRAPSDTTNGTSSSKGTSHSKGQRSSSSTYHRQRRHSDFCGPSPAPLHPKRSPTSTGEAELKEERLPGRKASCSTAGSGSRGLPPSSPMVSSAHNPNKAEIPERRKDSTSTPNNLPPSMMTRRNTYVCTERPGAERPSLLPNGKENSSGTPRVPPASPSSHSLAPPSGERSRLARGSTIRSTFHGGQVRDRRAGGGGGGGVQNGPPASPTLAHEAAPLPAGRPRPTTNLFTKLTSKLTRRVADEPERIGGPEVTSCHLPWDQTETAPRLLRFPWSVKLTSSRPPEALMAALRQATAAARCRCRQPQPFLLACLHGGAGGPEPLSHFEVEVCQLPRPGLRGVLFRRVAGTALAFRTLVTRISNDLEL
# MINK1 (human) = MINK1 (human) (UniProt Q8N4C8)
# MYLK (human) = MYLK (human) (UniProt Q15746)
# NEK6 (human) = NEK6 (human) (UniProt Q9HC98)
# NEK6 (human), sequence (Q9HC98 whole entry, looked up): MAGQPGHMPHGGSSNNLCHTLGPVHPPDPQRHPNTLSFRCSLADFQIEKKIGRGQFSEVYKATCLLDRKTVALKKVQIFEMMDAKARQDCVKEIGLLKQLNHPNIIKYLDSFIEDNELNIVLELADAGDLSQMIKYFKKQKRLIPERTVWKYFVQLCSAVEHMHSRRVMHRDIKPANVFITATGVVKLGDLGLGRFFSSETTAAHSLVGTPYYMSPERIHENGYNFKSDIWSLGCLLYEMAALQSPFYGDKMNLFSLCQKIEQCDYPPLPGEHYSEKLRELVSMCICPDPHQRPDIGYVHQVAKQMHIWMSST
# PAK6 (human) = PAK6 (human) (UniProt Q9NQU5)
# PIM1 (human) = PIM1 (human) (UniProt P11309)
# PIM1 (human), sequence (P11309 whole entry, looked up): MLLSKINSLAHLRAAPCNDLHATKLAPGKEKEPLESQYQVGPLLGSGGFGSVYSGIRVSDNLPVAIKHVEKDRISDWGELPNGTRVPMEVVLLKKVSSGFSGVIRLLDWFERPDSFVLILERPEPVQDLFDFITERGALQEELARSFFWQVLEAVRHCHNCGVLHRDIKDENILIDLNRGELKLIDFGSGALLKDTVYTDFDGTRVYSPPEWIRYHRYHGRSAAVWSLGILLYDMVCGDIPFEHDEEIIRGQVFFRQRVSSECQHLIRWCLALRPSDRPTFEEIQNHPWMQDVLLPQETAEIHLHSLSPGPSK
# PIM3 (human) = PIM3 (human) (UniProt Q86V86)
# PKN2 (human) = PKN2 (human) (UniProt Q16513)
# RPS6KA5 KD1 KD2 (human) = RPS6KA5 KD1 KD2 (human) (UniProt O75582)
# [1] = test system: RPS6KB1 (human), P23443 [T412E]
# [2] = test system: SGK1 (human), O00141 [S422D]
# SRPK1 (human) = SRPK1 (human) (UniProt Q96SB4)
# [3] = target: STK11 CAB39 STRADA (human) (UniProt Q9Y376+Q7RTN6+Q15831)
# STK11 CAB39 STRADA (human), sequence (Q15831 whole entry, looked up): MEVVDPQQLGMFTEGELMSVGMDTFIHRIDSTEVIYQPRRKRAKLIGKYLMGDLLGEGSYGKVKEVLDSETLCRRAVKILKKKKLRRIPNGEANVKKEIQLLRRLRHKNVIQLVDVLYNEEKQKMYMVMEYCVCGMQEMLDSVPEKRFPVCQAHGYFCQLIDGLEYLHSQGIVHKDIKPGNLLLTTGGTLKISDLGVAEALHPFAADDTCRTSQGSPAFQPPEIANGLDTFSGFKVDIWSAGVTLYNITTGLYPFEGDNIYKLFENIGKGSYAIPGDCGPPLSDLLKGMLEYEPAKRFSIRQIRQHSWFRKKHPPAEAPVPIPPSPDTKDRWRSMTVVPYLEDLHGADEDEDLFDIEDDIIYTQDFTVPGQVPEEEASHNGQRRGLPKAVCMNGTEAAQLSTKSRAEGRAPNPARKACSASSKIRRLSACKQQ
# STK11 CAB39 STRADA (human), sequence (Q7RTN6 whole entry, looked up): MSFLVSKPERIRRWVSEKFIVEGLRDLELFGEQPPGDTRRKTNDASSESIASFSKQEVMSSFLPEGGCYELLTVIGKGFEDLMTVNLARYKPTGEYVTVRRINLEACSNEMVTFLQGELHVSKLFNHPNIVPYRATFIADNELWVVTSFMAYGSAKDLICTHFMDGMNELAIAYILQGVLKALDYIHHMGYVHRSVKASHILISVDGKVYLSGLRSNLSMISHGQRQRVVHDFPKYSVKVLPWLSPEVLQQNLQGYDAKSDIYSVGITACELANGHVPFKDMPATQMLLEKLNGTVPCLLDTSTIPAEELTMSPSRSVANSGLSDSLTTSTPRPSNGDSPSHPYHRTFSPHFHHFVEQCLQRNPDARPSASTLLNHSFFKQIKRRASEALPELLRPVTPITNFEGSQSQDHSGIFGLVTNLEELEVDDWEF
# STK11 CAB39 STRADA (human), sequence (Q9Y376 whole entry, looked up): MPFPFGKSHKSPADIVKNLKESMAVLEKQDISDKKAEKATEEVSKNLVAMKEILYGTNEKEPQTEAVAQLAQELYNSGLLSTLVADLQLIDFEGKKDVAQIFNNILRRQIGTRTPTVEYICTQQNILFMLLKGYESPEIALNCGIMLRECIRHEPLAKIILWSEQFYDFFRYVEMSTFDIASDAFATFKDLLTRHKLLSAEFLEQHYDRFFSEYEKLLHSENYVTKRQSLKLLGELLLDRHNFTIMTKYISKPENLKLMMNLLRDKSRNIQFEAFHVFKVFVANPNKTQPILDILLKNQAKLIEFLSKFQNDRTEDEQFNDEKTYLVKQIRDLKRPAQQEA
# TTK (human) = TTK (human) (UniProt P33981)
smiles,measurement,setting,value
CNc1nc(-c2ccc3c(N)n[nH]c3c2)cc(N2C[C@@H](C(=O)NC3CCCCC3)CC[C@H]2C)n1,residual activity,AURKA (human); compound 0.01 µM,112%
same,residual activity,AURKA (human); compound 0.1 µM,115%
same,residual activity,AURKA (human); compound 1.0 µM,92%
same,residual activity,AURKB (human); compound 0.01 µM,105%
same,residual activity,AURKB (human); compound 0.1 µM,106%
same,residual activity,AURKB (human); compound 1.0 µM,83%
same,residual activity,CSNK2A1 (human); compound 0.01 µM,103%
same,residual activity,CSNK2A1 (human); compound 0.1 µM,104%
same,residual activity,CSNK2A1 (human); compound 1.0 µM,94%
same,residual activity,DYRK1A (human); compound 0.01 µM,102%
same,residual activity,DYRK1A (human); compound 0.1 µM,107%
same,residual activity,DYRK1A (human); compound 1.0 µM,103%
same,residual activity,EPHA2 (human); compound 0.01 µM,110%
same,residual activity,EPHA2 (human); compound 0.1 µM,118%
same,residual activity,EPHA2 (human); compound 1.0 µM,114%
same,residual activity,FGFR1 (human); compound 0.01 µM,119%
same,residual activity,FGFR1 (human); compound 0.1 µM,119%
same,residual activity,FGFR1 (human); compound 1.0 µM,110%
same,residual activity,HIPK3 (human); compound 0.01 µM,111%
same,residual activity,HIPK3 (human); compound 0.1 µM,105%
same,residual activity,HIPK3 (human); compound 1.0 µM,106%
same,residual activity,INSRR (human); compound 0.01 µM,111%
same,residual activity,INSRR (human); compound 0.1 µM,111%
same,residual activity,INSRR (human); compound 1.0 µM,109%
same,residual activity,IRAK4 (human); compound 0.01 µM,109%
same,residual activity,IRAK4 (human); compound 0.1 µM,112%
same,residual activity,IRAK4 (human); compound 1.0 µM,106%
same,residual activity,MAP2K1 (human); compound 0.01 µM,86%
same,residual activity,MAP2K1 (human); compound 0.1 µM,101%
same,residual activity,MAP2K1 (human); compound 1.0 µM,84%
same,residual activity,MAPK12 (human); compound 0.01 µM,109%
same,residual activity,MAPK12 (human); compound 0.1 µM,110%
same,residual activity,MAPK12 (human); compound 1.0 µM,106%
same,residual activity,MAPK13 (human); compound 0.01 µM,106%
same,residual activity,MAPK13 (human); compound 0.1 µM,113%
same,residual activity,MAPK13 (human); compound 1.0 µM,108%
same,residual activity,MAPK3 (human); compound 0.01 µM,93%
same,residual activity,MAPK3 (human); compound 0.1 µM,106%
same,residual activity,MAPK3 (human); compound 1.0 µM,94%
same,residual activity,MAPK9 (human); compound 0.01 µM,117%
same,residual activity,MAPK9 (human); compound 0.1 µM,126%
same,residual activity,MAPK9 (human); compound 1.0 µM,120%
same,residual activity,MARK3 (human); compound 0.01 µM,113%
same,residual activity,MARK3 (human); compound 0.1 µM,109%
same,residual activity,MARK3 (human); compound 1.0 µM,114%
same,residual activity,MARK4 (human); compound 0.01 µM,106%
same,residual activity,MARK4 (human); compound 0.1 µM,114%
same,residual activity,MARK4 (human); compound 1.0 µM,102%
same,residual activity,MINK1 (human); compound 0.01 µM,121%
same,residual activity,MINK1 (human); compound 0.1 µM,110%
same,residual activity,MINK1 (human); compound 1.0 µM,105%
same,residual activity,MYLK (human); compound 0.01 µM,116%
same,residual activity,MYLK (human); compound 0.1 µM,113%
same,residual activity,MYLK (human); compound 1.0 µM,92%
same,residual activity,NEK6 (human); compound 0.01 µM,98%
same,residual activity,NEK6 (human); compound 0.1 µM,101%
same,residual activity,NEK6 (human); compound 1.0 µM,97%
same,residual activity,PAK6 (human); compound 0.01 µM,108%
same,residual activity,PAK6 (human); compound 0.1 µM,120%
same,residual activity,PAK6 (human); compound 1.0 µM,124%
same,residual activity,PIM1 (human); compound 0.01 µM,99%
same,residual activity,PIM1 (human); compound 0.1 µM,100%
same,residual activity,PIM1 (human); compound 1.0 µM,98%
same,residual activity,PIM3 (human); compound 0.01 µM,105%
same,residual activity,PIM3 (human); compound 0.1 µM,112%
same,residual activity,PIM3 (human); compound 1.0 µM,97%
same,residual activity,PKN2 (human); compound 0.01 µM,90%
same,residual activity,PKN2 (human); compound 0.1 µM,102%
same,residual activity,PKN2 (human); compound 1.0 µM,82%
same,residual activity,RPS6KA5 KD1 KD2 (human); compound 0.01 µM,102%
same,residual activity,RPS6KA5 KD1 KD2 (human); compound 0.1 µM,100%
same,residual activity,RPS6KA5 KD1 KD2 (human); compound 1.0 µM,94%
same,residual activity,[1]; compound 0.01 µM,111%
same,residual activity,[1]; compound 0.1 µM,106%
same,residual activity,[1]; compound 1.0 µM,100%
same,residual activity,[2]; compound 0.01 µM,96%
same,residual activity,[2]; compound 0.1 µM,96%
same,residual activity,[2]; compound 1.0 µM,37%
same,residual activity,SRPK1 (human); compound 0.01 µM,106%
same,residual activity,SRPK1 (human); compound 0.1 µM,120%
same,residual activity,SRPK1 (human); compound 1.0 µM,106%
same,residual activity,[3]; compound 0.01 µM,104%
same,residual activity,[3]; compound 0.1 µM,124%
same,residual activity,[3]; compound 1.0 µM,100%
same,residual activity,TTK (human); compound 0.01 µM,90%
same,residual activity,TTK (human); compound 0.1 µM,98%
same,residual activity,TTK (human); compound 1.0 µM,82%
